From the supplement of paper PMC10307832

Assays:
Assay in all cases: relative viability (nuclei count vs DMSO), 5 days (fraction); higher = more cells survive
[1] = compound: Cn1nnc2c(C(N)=O)ncn2c1=O [Temozolomide] + CCNC(=O)c1noc(-c2cc(C(C)C)c(O)cc2O)c1-c1ccc(CN2CCOCC2)cc1 [Luminespib] (partner 0.01 µM)
Summary of the method: (§1)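 Medians of duplicate plates are given as relative viability. That measure is the nuclei count in treated wells divided by the count in vehicle wells. Counts were taken on 4× images of lung cancer cell lines in 1536-well plates, 5 days after pin-tool dosing the day after seeding with one drug alone or a fixed anchor-drug dose plus five library-drug doses (not always all listed) in √10 steps.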

[2] = compound: Cn1nnc2c(C(N)=O)ncn2c1=O [Temozolomide] + N=C(N)NC(=N)NCCc1ccccc1 [Phenformin] (partner 250 µM)
Summary of the method: as §1

[3] = compound: Cn1nnc2c(C(N)=O)ncn2c1=O [Temozolomide] + CC(=O)c1c(C)c2cnc(Nc3ccc(N4CCNCC4)cn3)nc2n(C2CCCC2)c1=O [Palbociclib] (partner 0.5 µM)
Summary of the method: as §1

[4] = compound: C[C@@H](C(=O)N[C@@H](C1CCCCC1)C(=O)N2CCC[C@H]2C(=O)N[C@@H]3[C@@H](CC4=CC=CC=C34)OCC#CC#CCO[C@@H]5CC6=CC=CC=C6[C@@H]5NC(=O)[C@@H]7CCCN7C(=O)[C@H](C8CCCCC8)NC(=O)[C@H](C)NC)NC [AZD5582] + CS(=O)(=O)CCNCc1ccc(-c2ccc3ncnc(Nc4ccc(OCc5cccc(F)c5)c(Cl)c4)c3c2)o1 [Lapatinib] (partner 2 µM)
Summary of the method: as §1

Work on NCI-H838 yielded a relative viability ([1]; first compound 0.2 µM) of 0.357, a relative viability ([1]; first compound 0.6325 µM) of 0.346 and a relative viability ([1]; first compound 2 µM) of 0.35. For the same cell line, the relative viability ([1]; first compound 6.325 µM) was 0.301, the relative viability ([1]; first compound 20 µM) was 0.393 and the relative viability ([2]; first compound 0.2 µM) was 0.63. It also gave a relative viability ([2]; first compound 0.6325 µM) of 0.616, a relative viability ([2]; first compound 2 µM) of 0.676 and a relative viability ([2]; first compound 6.325 µM) of 0.568. For the same cell line, the relative viability ([2]; first compound 20 µM) was 0.635, the relative viability ([3]; first compound 0.2 µM) was 0.23 and the relative viability ([3]; first compound 0.6325 µM) was 0.237. The relative viability ([3]; first compound 2 µM) was 0.226, the relative viability ([3]; first compound 6.325 µM) was 0.25 and the relative viability ([3]; first compound 20 µM) was 0.252. It also gave a relative viability ([4]; first compound 0.001581 µM) of 0.823, a relative viability ([4]; first compound 0.005 µM) of 0.964 and a relative viability ([4]; first compound 0.01581 µM) of 0.746. The relative viability ([4]; first compound 0.05 µM) was 0.979.

Cell Line NCI-H2170 has a relative viability ([1]; first compound 0.6325 µM) of 0.7, a relative viability ([1]; first compound 2 µM) of 0.749 and a relative viability ([1]; first compound 6.325 µM) of 0.478. For the same cell line, the relative viability ([1]; first compound 20 µM) was 0.359, the relative viability ([2]; first compound 0.6325 µM) was 0.422 and the relative viability ([2]; first compound 2 µM) was 0.448. It also gave a relative viability ([2]; first compound 6.325 µM) of 0.349, a relative viability ([2]; first compound 20 µM) of 0.327 and a relative viability ([3]; first compound 0.6325 µM) of 0.398. The relative viability ([3]; first compound 2 µM) was 0.368, the relative viability ([3]; first compound 6.325 µM) was 0.375 and the relative viability ([3]; first compound 20 µM) was 0.264. For the same cell line, the relative viability ([4]; first compound 0.001581 µM) was 0.278, the relative viability ([4]; first compound 0.005 µM) was 0.288 and the relative viability ([4]; first compound 0.01581 µM) was 0.293. For the same cell line, the relative viability ([4]; first compound 0.05 µM) was 0.274.

Work on HCC-827 yielded a relative viability ([1]; first compound 0.2 µM) of 0.52, a relative viability ([1]; first compound 0.6325 µM) of 0.67 and a relative viability ([1]; first compound 2 µM) of 0.638. The relative viability ([1]; first compound 6.325 µM) was 0.382, the relative viability ([1]; first compound 20 µM) was 0.191 and the relative viability ([2]; first compound 0.2 µM) was 0.248. It also gave a relative viability ([2]; first compound 0.6325 µM) of 0.443, a relative viability ([2]; first compound 2 µM) of 0.397 and a relative viability ([2]; first compound 6.325 µM) of 0.41. It also gave a relative viability ([2]; first compound 20 µM) of 0.131, a relative viability ([3]; first compound 0.2 µM) of 0.461 and a relative viability ([3]; first compound 0.6325 µM) of 0.449. For the same cell line, the relative viability ([3]; first compound 2 µM) was 0.513, the relative viability ([3]; first compound 6.325 µM) was 0.517 and the relative viability ([3]; first compound 20 µM) was 0.148. For the same cell line, the relative viability ([4]; first compound 0.001581 µM) was 0.222, the relative viability ([4]; first compound 0.005 µM) was 0.183 and the relative viability ([4]; first compound 0.01581 µM) was 0.179. For the same cell line, the relative viability ([4]; first compound 0.05 µM) was 0.163.

With NCI-H1793 the relative viability ([1]; first compound 0.6325 µM) was 0.151, the relative viability ([1]; first compound 2 µM) was 0.309 and the relative viability ([1]; first compound 6.325 µM) was 0.189. For the same cell line, the relative viability ([1]; first compound 20 µM) was 0.186, the relative viability ([2]; first compound 0.6325 µM) was 0.359 and the relative viability ([2]; first compound 2 µM) was 0.394. It also gave a relative viability ([2]; first compound 6.325 µM) of 0.297, a relative viability ([2]; first compound 20 µM) of 0.323 and a relative viability ([3]; first compound 0.6325 µM) of 0.268. The relative viability ([3]; first compound 2 µM) was 0.367, the relative viability ([3]; first compound 6.325 µM) was 0.318 and the relative viability ([3]; first compound 20 µM) was 0.264. For the same cell line, the relative viability ([4]; first compound 0.001581 µM) was 0.777, the relative viability ([4]; first compound 0.005 µM) was 0.898 and the relative viability ([4]; first compound 0.01581 µM) was 0.592. It also gave a relative viability ([4]; first compound 0.05 µM) of 0.838.

In the case of NCI-H441, the relative viability ([1]; first compound 0.2 µM) is reported as 0.333, the relative viability ([1]; first compound 0.6325 µM) is reported as 0.515 and the relative viability ([1]; first compound 2 µM) is reported as 0.331. The relative viability ([1]; first compound 6.325 µM) was 0.306, the relative viability ([1]; first compound 20 µM) was 0.368 and the relative viability ([2]; first compound 0.2 µM) was 1.07. It also gave a relative viability ([2]; first compound 0.6325 µM) of 0.892, a relative viability ([2]; first compound 2 µM) of 0.93 and a relative viability ([2]; first compound 6.325 µM) of 0.738. For the same cell line, the relative viability ([2]; first compound 20 µM) was 0.944, the relative viability ([3]; first compound 0.2 µM) was 0.23 and the relative viability ([3]; first compound 0.6325 µM) was 0.211. The relative viability ([3]; first compound 2 µM) was 0.211, the relative viability ([3]; first compound 6.325 µM) was 0.245 and the relative viability ([3]; first compound 20 µM) was 0.226.

H3255 showed a relative viability ([1]; first compound 0.6325 µM) of 0.991, a relative viability ([1]; first compound 2 µM) of 0.946 and a relative viability ([1]; first compound 6.325 µM) of 0.868. It also gave a relative viability ([1]; first compound 20 µM) of 0.28, a relative viability ([2]; first compound 0.6325 µM) of 0.385 and a relative viability ([2]; first compound 2 µM) of 0.344. For the same cell line, the relative viability ([2]; first compound 6.325 µM) was 0.403, the relative viability ([2]; first compound 20 µM) was 0.185 and the relative viability ([3]; first compound 0.6325 µM) was 0.315. The relative viability ([3]; first compound 2 µM) was 0.302, the relative viability ([3]; first compound 6.325 µM) was 0.312 and the relative viability ([3]; first compound 20 µM) was 0.297. The relative viability ([4]; first compound 0.001581 µM) was 0.249, the relative viability ([4]; first compound 0.005 µM) was 0.284 and the relative viability ([4]; first compound 0.01581 µM) was 0.208. It also gave a relative viability ([4]; first compound 0.05 µM) of 0.216.

ABC-1 showed a relative viability ([1]; first compound 0.2 µM) of 0.507, a relative viability ([1]; first compound 0.6325 µM) of 0.439 and a relative viability ([1]; first compound 2 µM) of 0.788. For the same cell line, the relative viability ([1]; first compound 6.325 µM) was 0.551, the relative viability ([1]; first compound 20 µM) was 0.553 and the relative viability ([2]; first compound 0.2 µM) was 0.241. For the same cell line, the relative viability ([2]; first compound 0.6325 µM) was 0.232, the relative viability ([2]; first compound 2 µM) was 0.24 and the relative viability ([2]; first compound 6.325 µM) was 0.213. It also gave a relative viability ([2]; first compound 20 µM) of 0.237, a relative viability ([3]; first compound 0.2 µM) of 0.639 and a relative viability ([3]; first compound 0.6325 µM) of 0.777. For the same cell line, the relative viability ([3]; first compound 2 µM) was 0.707, the relative viability ([3]; first compound 6.325 µM) was 0.65 and the relative viability ([3]; first compound 20 µM) was 0.65. For the same cell line, the relative viability ([4]; first compound 0.001581 µM) was 0.932, the relative viability ([4]; first compound 0.005 µM) was 1.19 and the relative viability ([4]; first compound 0.01581 µM) was 1.01. It also gave a relative viability ([4]; first compound 0.05 µM) of 1.44.

Cell Line 201T has a relative viability ([1]; first compound 0.2 µM) of 1.11, a relative viability ([1]; first compound 0.6325 µM) of 1.07 and a relative viability ([1]; first compound 2 µM) of 1.05. The relative viability ([1]; first compound 6.325 µM) was 1.02, the relative viability ([1]; first compound 20 µM) was 0.985 and the relative viability ([2]; first compound 0.2 µM) was 0.491. For the same cell line, the relative viability ([2]; first compound 0.6325 µM) was 0.449, the relative viability ([2]; first compound 2 µM) was 0.497 and the relative viability ([2]; first compound 6.325 µM) was 0.376. The relative viability ([2]; first compound 20 µM) was 0.456, the relative viability ([3]; first compound 0.2 µM) was 0.348 and the relative viability ([3]; first compound 0.6325 µM) was 0.361. It also gave a relative viability ([3]; first compound 2 µM) of 0.382, a relative viability ([3]; first compound 6.325 µM) of 0.362 and a relative viability ([3]; first compound 20 µM) of 0.355. It also gave a relative viability ([4]; first compound 0.001581 µM) of 1.03, a relative viability ([4]; first compound 0.005 µM) of 1.16 and a relative viability ([4]; first compound 0.01581 µM) of 1.05. For the same cell line, the relative viability ([4]; first compound 0.05 µM) was 1.2.

With NCI-H596 the relative viability ([1]; first compound 0.2 µM) was 1.15, the relative viability ([1]; first compound 0.6325 µM) was 1.15 and the relative viability ([1]; first compound 2 µM) was 0.948. The relative viability ([1]; first compound 6.325 µM) was 0.84, the relative viability ([1]; first compound 20 µM) was 1.18 and the relative viability ([2]; first compound 0.2 µM) was 0.797. For the same cell line, the relative viability ([2]; first compound 0.6325 µM) was 0.827, the relative viability ([2]; first compound 2 µM) was 0.658 and the relative viability ([2]; first compound 6.325 µM) was 0.659. For the same cell line, the relative viability ([2]; first compound 20 µM) was 0.787, the relative viability ([4]; first compound 0.001581 µM) was 0.851 and the relative viability ([4]; first compound 0.005 µM) was 0.829. It also gave a relative viability ([4]; first compound 0.01581 µM) of 0.959 and a relative viability ([4]; first compound 0.05 µM) of 0.326.
